From patent publication US11084798B1, “2-oxoquinazoline derivatives as methionine adenosyltransferase 2A inhibitors” (IDEAYA BIOSCIENCES, INC., priority 2018, dated 2021)

Molecular target: hMAT2A (Homo sapiens (Human), UniProt P31153)
Assay: Malachite Green Assay (MAT2A enzyme inhibition)
Format: biochemical
Conditions: hMAT2A 50 nM, substrates 500 uM each
Method: The ability of the compound of present disclosure to inhibit MAT2A enzyme was determined using the Malachite Green or Phosphate Sensor Fluorescence Assay described below.
L-methionine Substrate: Alfa Aesar catalog #J61904
ATP Substrate: Alfa Aesar cat #J60336
Malachite Green Detection Reagent: Millipore Sigma catalog #MAK307-1KT
Assay buffer: 50 mM Tris, pH 7.5/50 mM KCl/10 mM MgCl2/0.01% Brij-35/1 mM DTT/0.1% BGG
The plate was centrifuged at 1000 rpm for 1 minute and then incubated at room temperature for 1 hour. 5 μL of malachite green detection reagent was added to all the test wells and the plate was centrifuged at 1000 rpm for 1 minute and then incubated at room temperature for 30 minutes. The plate was read for absorbance at 620 nm on a plate reader (e.g., Infinite M1000).

hMAT2A, sequence (P31153 whole entry): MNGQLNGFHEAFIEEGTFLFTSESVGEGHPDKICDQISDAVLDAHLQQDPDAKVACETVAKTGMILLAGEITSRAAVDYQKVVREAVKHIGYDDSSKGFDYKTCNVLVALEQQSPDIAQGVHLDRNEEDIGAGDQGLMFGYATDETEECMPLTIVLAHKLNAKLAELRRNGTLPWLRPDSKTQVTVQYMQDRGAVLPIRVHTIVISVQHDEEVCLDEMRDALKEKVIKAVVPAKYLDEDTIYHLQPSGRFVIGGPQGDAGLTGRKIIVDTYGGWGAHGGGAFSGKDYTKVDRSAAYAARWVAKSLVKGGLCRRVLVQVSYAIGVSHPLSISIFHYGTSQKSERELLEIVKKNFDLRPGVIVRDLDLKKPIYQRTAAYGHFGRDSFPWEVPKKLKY

IC50: 200 to 500 nM
Substance: 7-chloro-4-(dimethylamino)-1-(3-(2-phenoxyethyl)phenyl)quinazolin-2(1H)-one [Example 10]
